Measurements: patent US6737439B2, “Aromatase inhibitors from Broussonetia papyrifera” (The Board of Trustees of the University of Illinois, priority 2001, dated 2004)
Several values for one entry are separate records, joined by “and”; a condition that tells them apart may be missing. Equal entries are not always repeated. Entries after “also recorded” stand apart in the source; their conditions may differ. Where two headings read alike, the source gives them in different places.

Legend:
[1] = target: T1, aromatase (Homo sapiens, UniProt P11511); assay: Assay for inhibition of aromatase activity (human placental microsomes, [1,2-3H]androstenedione); format: biochemical; details: for aromatase inhibition, result in words: in vitro aromatase assay; for fold greater aromatase inhibition potency than aminoglutethimide: versus positive control aminoglutethimide
T1 construct: Reaction mixtures were prepared in glass tubes containing 4 μL of placental microsomes (5 mg/mL); from tissue; host or cells: human term placenta (microsomal fraction)
T1 sequence (P11511 1-503): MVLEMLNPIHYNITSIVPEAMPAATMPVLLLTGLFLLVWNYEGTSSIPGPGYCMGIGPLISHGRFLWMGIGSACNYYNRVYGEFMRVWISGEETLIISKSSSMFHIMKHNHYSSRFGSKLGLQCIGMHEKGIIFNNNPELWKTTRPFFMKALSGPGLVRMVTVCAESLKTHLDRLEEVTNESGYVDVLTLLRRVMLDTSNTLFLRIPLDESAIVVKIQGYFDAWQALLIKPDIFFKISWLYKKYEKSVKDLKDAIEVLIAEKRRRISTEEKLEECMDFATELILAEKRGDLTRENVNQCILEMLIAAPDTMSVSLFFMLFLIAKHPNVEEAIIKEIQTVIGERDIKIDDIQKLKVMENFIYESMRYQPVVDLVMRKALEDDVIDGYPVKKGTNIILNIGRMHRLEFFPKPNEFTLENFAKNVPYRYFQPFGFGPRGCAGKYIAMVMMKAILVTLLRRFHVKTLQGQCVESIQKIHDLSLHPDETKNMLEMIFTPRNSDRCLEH
Protocol: Assay for Inhibition of Aromatase Activity. Microsomes were prepared from freshly delivered human term placentas using 0.05 M potassium phosphate buffer, pH 7.4, and stored frozen in plastic tubes at −70° C. […] After a 4 min incubation at 37° C., the reaction was terminated by adding 3 mL of chloroform. The tubes were centrifuged at 2,000×g for 10 min and then 300 μL of the aqueous phases were transferred to tubes containing 300 μL of charcoal/dextrin solution (5%). Following another 10 min centrifugation at 2,000×g, supernatant fractions (500 μL) were used for the determination of radioactivity. Inhibition of aromatase activity was calculated using the following equation: [formula]
Samples were tested in duplicate and the mean values were used to prepare dose-response curves. Results were typically expressed as IC50 values.

[2] = test system: alveolar lesions in a mouse mammary organ culture model; assay: Mouse mammary organ culture model, formation of alveolar lesions; format: cell-based; details: tested at 100 ng/ml
[3] = test system: tumors in Sprague-Dawley rats; details: 400 mg/kg diet; cited from earlier work
[4] = read-out: IC50, inactive in the aromatase inhibition assay at the dose levels used
[5] = human placental microsomes, read-out: IC50 (μM), aromatase inhibitory activity

Molecule	aromatase inhibition, result in words [1]	IC50 [1, 5]	also measured
O=c1ccc2c(O)cc(O)cc2o1 [5,7-dihydrocoumarin, 5,7-Dihydroxycoumarin]	–	–	IC50 [1, 4]: > 225 µM
O=C1c2c(O)cc(O)cc2O[C@H](c2ccc(O)cc2O)[C@H]1O [(2R,3R)-5,7,2′,4′-tetrahydroxyflavanonol, (2R,3R)-5,7,2′,4′-Tetrahydroxyflavanonol]	did not show potent aromatase inhibition	–	–
O=C1c2c(O)cc(O)cc2O[C@H](c2ccc(O)cc2)[C@H]1O [(2R,3R)-katuranin, (2R,3R)-Katuranin]	did not show potent aromatase inhibition	–	–
CC(C)=CCc1cc([C@H]2Oc3c(CC=C(C)C)c(O)cc(O)c3C(=O)[C@@H]2O)ccc1O [(2R,3R)-lespedezaflavanone C, (2R,3R)-Lespedezaflavanone C]	did not show potent aromatase inhibition	–	–
Oc1ccc([C@@H]2CCc3ccc(O)cc3O2)cc1 [(2S)-7,4′-dihydroxyflavan, (2S)-7,4′-Dihydroxyflavan]	did not show potent aromatase inhibition	–	–
CC(C)=CCC/C(C)=C/Cc1c(-c2ccc(O)cc2O)oc2cc(O)cc(O)c2c1=O [Compound 1, 5,7,2′,4′-Tetrahydroxy-3-geranylflavone]	active	24 µM	melting point: 94 to 95 °C
CC(C)=CCC/C(C)=C/Cc1c(O)cc2oc(-c3ccc(O)c(O)c3)c(O)c(=O)c2c1O [Compound 2, 5,7,3′,4′-Tetrahydroxy-6-geranylflavonol]	not active; also recorded: inactive	–	–
COc1c(-c2ccc(O)c(O)c2)oc2cc(O)c(C/C=C(\C)CCC=C(C)C)c(O)c2c1=O [Compound 3, 5,7,3′,4′-Tetrahydroxy-3-methoxy-6-geranylflavone]	not active; also recorded: inactive	–	melting point: 98 to 99 °C
CC(C)=CCc1cc([C@@H]2CCc3ccc(O)cc3O2)ccc1O [Compound 4, (2S)-7,4′-Dihydroxy-3′-prenylflavan]	did not show potent aromatase inhibition; also recorded: inactive	–	–
Oc1ccc(CCCc2ccc(O)cc2O)cc1 [Compound 5, 1-(2,4-Dihydroxyphenyl)-3-(4-hydroxyphenyl)propane]	inactive	–	melting point: 92 to 93 °C
CC(C)=CCc1c(O)ccc(CCCc2ccc(O)cc2)c1O [Compound 6, 1-(2,4-Dihydroxy-3-prenylphenyl)-3-(4-hydroxyphenyl)propane]	inactive	–	melting point: 115 to 116 °C
COc1cc(O)ccc1CCCc1ccc(O)c(CC=C(C)C)c1 [Compound 7, 1-(4-Hydroxy-2-methoxyphenyl)-3-(4-hydroxy-3-prenylphenyl)propane]	inactive	–	melting point: 85 to 86 °C
COc1cc(/C=C/C(=O)OC/C(C)=C/Cc2c(O)ccc(C(=O)/C=C/c3ccc(O)cc3O)c2O)ccc1O [Compound 8, 3′-(γ-hydroxymethyl-(E)-γ-methylallyl)-2,4,2′,4′-tetrahydroxychalcone 11′-O-ferulate]	active	7.1 µM	–
C/C(=C\Cc1c(O)ccc(C(=O)/C=C/c2ccc(O)cc2O)c1O)COC(=O)/C=C/c1ccc(O)cc1 [Compound 9, 3′-[γ-Hydroxymethyl-(E)-γ-methylallyl]-2,4,2′,4′-tetrahydroxychalcone 11′-O-coumarate]	active	0.5 µM and 0.52 µM	fold greater aromatase inhibition potency than aminoglutethimide [1]: approximately ten
CC(C)=CCc1c(O)cc(O)cc1-c1cc2ccc(O)cc2o1 [Compound 10, Demethylmoracin I]	did not show potent aromatase inhibition; also recorded: active	31.1 µM	–
COc1ccc(CCCc2ccc(O)cc2)c(O)c1 [Compound 18, Broussonin A]	did not show potent aromatase inhibition	30 µM	–
Aminoglutethimide	–	–	MNU-induced tumor incidence [3]: effectively reduces
Broussonin F	did not show potent aromatase inhibition	–	–

Second part, led by results:

aromatase inhibition, result in words [1]	IC50 [1, 5]	Molecule	also measured
active	~0.1 µM and 0.11 µM	CC(C)(O)C1Cc2c(ccc3c2O[C@H](c2ccc(O)cc2O)CC3=O)O1 (stereo partly drawn) [Compound 11, 2S-2′,4′-Dihydroxy-2″-(1-hydroxy-1-methylethyl)-dihydrofuro[2,3-h]flavanone]	fold greater aromatase inhibition potency than aminoglutethimide [1]: approximately 60 fold; inhibition at 0.1 µg/mL [2]: 50%
–	2.2 µM	O=C1C[C@@H](c2ccc(O)cc2O)Oc2cc(O)cc(O)c21 [Compound 14, (2S)-5,7,2′,4′-Tetrahydroxyflavanone]	–
–	9.7 µM	CC(C)=CCc1cc(-c2oc3c(CC=C(C)C)c(O)cc(O)c3c(=O)c2O)ccc1O [Compound 16, Broussoflavonol F]	–
–	4.6 µM	CC(C)=CCc1c(O)ccc(C(=O)/C=C/c2ccc(O)cc2O)c1O [Compound 19, 2,4,2′,4′-Tetrahydroxy-3′-prenylchalcone]	–
did not show potent aromatase inhibition	31.1 µM	CC(C)=CCc1cc2cc(-c3cc(O)cc(O)c3)oc2cc1O [Compound 20, Moracin N]	–
–	7.5 µM	CC1=C[C@@H]2c3c(O)cc(-c4cc5ccc(O)cc5o4)cc3O[C@]3(c4ccc(O)cc4O)Oc4cc(O)ccc4[C@@H](C1)[C@H]23 [Compound 21, Albanol A]	–
did not show potent aromatase inhibition	–	COc1ccc2c(c1CC=C(C)C)O[C@H](c1ccc(O)cc1O)CC2 [Compound 22, (2S)-2′,4′-Dihydroxy-7-methoxy-8-prenylflavan]	IC50 [1, 4]: > 118 µM; melting point: 95 to 96 °C
not active	–	CC(C)=CCc1cc2c(cc1O)O[C@H](c1ccc(O)cc1)CC2=O [bavachin, Bavachin]	–
did not show potent aromatase inhibition	–	COc1cc(O)ccc1CCCc1ccc(O)cc1 [broussonin B, Broussonin B]	–
did not show potent aromatase inhibition	–	COc1ccc(CCCc2ccc(OC)c(O)c2)c(O)c1 [broussonin E, Broussonin E]	–
not active	–	CC(C)=CCc1c(O)cc2oc(-c3ccc(O)c(O)c3)c(O)c(=O)c2c1O [gancaonin P, Gancaonin P]	–
did not show potent aromatase inhibition	–	CC1(C)C=Cc2c(O)cc(-c3cc4ccc(O)cc4o3)cc2O1 [moracin D, Moracin D]	–
did not show potent aromatase inhibition	–	COc1cc(O)cc(-c2cc3ccc(O)cc3o2)c1CC=C(C)C [moracin I, Moracin I]	–
did not show potent aromatase inhibition	–	Oc1cc(O)cc(-c2cc3ccc(O)cc3o2)c1 [moracin M, Moracin M]	–
–	3.4 µM	(2S)-Euchrenone a7 [Compound 15]	–
